Reference: patent US20250263405A1, “HISTONE DEACETYLASE 6 INHIBITOR COMPOUNDS AND USES THEREOF” (VALO HEALTH, INC., priority 2021, published 2025)

Molecular target: HDAC6 (Homo sapiens (Human), UniProt Q9UBN7)
Assay: HDAC6 TR-FRET displacement assay
Type: binding
Details: displacement of fluorescein labeled tracer from HDAC6; 2 nM HDAC6, 1 nM tracer, 0.5 nM Tb-anti-GST antibody; 30 min pre-incubation, 6 hours at 25° C.
Excerpt: HDAC6 and Tb-anti-GST antibody were purchased from Signal Chem (cat #PC124) and Cisbio (cat #61GSTTAH), respectively. HEPES, pH 7.5 was purchased from Teknova (Cat #H1575). All other buffer components, NaCl (cat #S5150), KCl (cat #60121), Triton X-100 (cat #T9284), GSH (cat #G4251), BGG (cat #G5009), and BSA (cat #A2153) were purchased from SIGMA.
Displacement of fluorescein labeled tracer 2-(6-hydroxy-3-oxo-3H-xanthen-9-yl)-5-({[5-(4-{[7-(hydroxycarbamoyl)-2H,3H,4H,5H-thieno[2,3-f][1,4]oxazepine-4-carbonyl]amino}phenoxy)pentyl]carbamothioyl}amino)benzoic acid from HDAC6 was measured in vitro using a TR-FRET assay. The assays were performed in 1536-well plates in a total volume of 6 μL in assay buffer consisting of 50 mM HEPES pH 7.5, 50 mM NaCl, 50 mM KCl, 0.01% Triton X-100, 0.5 mM GSH, 0.03% BGG, 0.01% BSA.
For concentration response curves (IC50 determination), Compounds were serially diluted 3-fold from 2 mM highest concentration to generate a 10-point concentration gradient. To perform the assay, 30 nL of compound gradient solutions were transferred to the assay plate using the ECHO acoustic dispenser to achieve a final concentration range of 10 μM to 0.000508 uM in 6 μL reaction. 3 μL of HDAC6 in assay buffer were added to the assay plates and pre-incubate at room temp. for 30 mins. After pre-incubation, 3 μL of the tracer and TB-anti-GST antibody mix were added to the assay plates. The final concentrations of HDAC6, tracer, and TB-anti-GST antibody for each assay are 2 nM, 1 nM, and 0.5 nM, respectively. Binding reactions were equilibrated at 25° C. for an additional 6 hours, then read in endpoint mode on the BMG PheraStar (BMG labtech) equipped with a 337-520-490 optical module. The ratio of the 520/490 nm emission was calculated to determine the relative amounts of HDAC6 and tracer complex residue in each well.
The percent inhibition of HDAC6 (IC50) was calculated according to the following equation.
As set forth in Table 1, “A” indicates an HDAC6 IC50 value of less than 200 nM; “B” indicates an HDAC6 IC50 value of greater than or equal to 200 nM and less than 500 nM; and “C” indicates an HDAC6 IC50 value of greater than or equal to 500 nM and less than 5 μM.

Chain of HDAC6 (Q9UBN7 whole entry): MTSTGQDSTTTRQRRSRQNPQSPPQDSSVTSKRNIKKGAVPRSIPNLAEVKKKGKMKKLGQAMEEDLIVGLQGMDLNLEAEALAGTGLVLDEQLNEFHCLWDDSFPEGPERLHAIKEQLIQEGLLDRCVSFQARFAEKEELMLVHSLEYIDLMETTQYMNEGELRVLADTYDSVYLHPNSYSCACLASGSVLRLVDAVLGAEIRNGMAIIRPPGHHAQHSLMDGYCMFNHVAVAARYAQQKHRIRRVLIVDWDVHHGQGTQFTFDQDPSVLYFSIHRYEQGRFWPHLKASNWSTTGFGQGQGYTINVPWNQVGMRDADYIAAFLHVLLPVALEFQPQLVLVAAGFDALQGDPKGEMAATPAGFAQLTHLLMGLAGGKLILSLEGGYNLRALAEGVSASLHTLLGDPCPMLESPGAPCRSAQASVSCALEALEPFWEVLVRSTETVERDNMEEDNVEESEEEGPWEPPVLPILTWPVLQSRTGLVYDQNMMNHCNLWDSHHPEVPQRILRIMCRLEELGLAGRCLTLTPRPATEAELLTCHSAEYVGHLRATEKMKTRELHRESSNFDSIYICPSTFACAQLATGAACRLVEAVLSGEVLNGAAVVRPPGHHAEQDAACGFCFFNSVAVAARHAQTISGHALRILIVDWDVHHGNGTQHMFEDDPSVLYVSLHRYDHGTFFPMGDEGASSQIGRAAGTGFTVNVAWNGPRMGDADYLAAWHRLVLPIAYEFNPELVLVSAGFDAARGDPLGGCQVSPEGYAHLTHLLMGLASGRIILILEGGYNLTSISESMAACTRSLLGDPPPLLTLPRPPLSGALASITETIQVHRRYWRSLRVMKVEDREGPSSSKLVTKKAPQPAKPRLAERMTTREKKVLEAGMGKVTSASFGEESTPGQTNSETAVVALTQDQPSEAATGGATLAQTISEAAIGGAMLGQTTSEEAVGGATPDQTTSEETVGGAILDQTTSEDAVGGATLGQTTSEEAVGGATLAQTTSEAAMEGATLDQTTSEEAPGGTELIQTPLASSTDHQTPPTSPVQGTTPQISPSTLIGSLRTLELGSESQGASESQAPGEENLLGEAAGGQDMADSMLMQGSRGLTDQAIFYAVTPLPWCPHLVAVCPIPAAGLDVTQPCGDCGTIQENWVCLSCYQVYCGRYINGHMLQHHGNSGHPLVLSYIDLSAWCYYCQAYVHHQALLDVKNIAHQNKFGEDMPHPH

SMILES	IC50
CCN1CCC(C)(C(=O)N2Cc3c(F)cc(-c4noc(C(F)(F)F)n4)cc3OC[C@@H]2C)CC1 [Compound 55, (S)-(1-ethyl-4-methylpiperidin-4-yl)(6-fluoro-3-methyl-8-(5-(trifluoromethyl)-1,2,4-oxadiazol-3-yl)-2,3-dihydrobenzo[f][1,4]oxazepin-4(5H)-yl)methanone]	200 to 500 nM
COCC(=O)N1Cc2c(F)cc(-c3noc(C(F)(F)F)n3)cc2OC[C@@H]1C [Compound 41, 1-[(3S)-6-fluoro-3-methyl-8-[5-(trifluoromethyl)-1,2,4-oxadiazol-3-yl]-3,5-dihydro-2H-1,4-benzoxazepin-4-yl]-2-methoxyethanone]	< 200 nM
C[C@H]1COc2cc(-c3noc(C(F)(F)F)n3)cc(F)c2CN1C(=O)CN(C)C [Compound 43, (S)-2-(dimethylamino)-1-(6-fluoro-3-methyl-8-(5-(trifluoromethyl)-1,2,4-oxadiazol-3-yl)-2,3-dihydrobenzo[f][1,4]oxazepin-4(5H)-yl)ethan-1-one]	200 to 500 nM
C[C@H]1COc2cc(-c3noc(C(F)(F)F)n3)ccc2CN1C [Compound 35, (S)-3,4-dimethyl-8-(5-(trifluoromethyl)-1,2,4-oxadiazol-3-yl)-2,3,4,5-tetrahydrobenzo[f][1,4]oxazepine]	200 to 500 nM
C[C@H]1COc2cc(-c3noc(C(F)(F)F)n3)ccc2CN1S(C)(=O)=O [Compound 33, (S)-3-methyl-4-(methylsulfonyl)-8-(5-(trifluoromethyl)-1,2,4-oxadiazol-3-yl)-2,3,4,5-tetrahydrobenzo[f][1,4]oxazepine]	200 to 500 nM
O=C(N1Cc2ccc(-c3noc(C(F)(F)F)n3)cc2OC[C@@H]1c1ccccc1)C(F)(F)F [Compound 6, (S)-2,2,2-trifluoro-1-(3-phenyl-8-(5-(trifluoromethyl)-1,2,4-oxadiazol-3-yl)-2,3-dihydrobenzo[f][1,4]oxazepin-4(5H)-yl)ethan-1-one]	500 to 5000 nM
CC1(C(=O)N2Cc3ccc(-c4noc(C(F)(F)F)n4)cc3OC[C@@H]2C2CC2)CCOCC1 [Compound 32, (3S)-3-cyclopropyl-4-[(4-methyloxan-4-yl)carbonyl]-8-[5-(trifluoromethyl)-1,2,4-oxadiazol-3-yl]-3,5-dihydro-2H-1,4-benzoxazepine]	< 200 nM
C[C@H]1COc2cc(-c3nnc(C(F)F)o3)ccc2CN1C(=O)C(C)(C)C [Compound 20, (S)-1-(8-(5-(difluoromethyl)-1,3,4-oxadiazol-2-yl)-3-methyl-2,3-dihydrobenzo[f][1,4]oxazepin-4(5H)-yl)-2,2-dimethylpropan-1-one]	< 200 nM
CC(C)C(=O)N1Cc2c(F)cc(-c3noc(C(F)(F)F)n3)cc2OC[C@@H]1C [Compound 38, 1-[(3S)-6-fluoro-3-methyl-8-[5-(trifluoromethyl)-1,2,4-oxadiazol-3-yl]-3,5-dihydro-2H-1,4-benzoxazepin-4-yl]-2-methylpropan-1-one]	< 200 nM
C[C@H]1COc2cc(-c3noc(C(F)(F)F)n3)cc(F)c2CN1C(=O)C1(C)CCOCC1 [Compound 18, (3S)-6-fluoro-3-methyl-4-[(4-methyloxan-4-yl)carbonyl]-8-[5-(trifluoromethyl)-1,2,4-oxadiazol-3-yl]-3,5-dihydro-2H-1,4-benzoxazepine]	< 200 nM
COC[C@H]1COc2cc(-c3noc(C(F)(F)F)n3)ccc2CN1C(=O)C1(C)CCOCC1 [Compound 26, (3S)-3-(methoxymethyl)-4-[(4-methyloxan-4-yl)carbonyl]-8-[5-(trifluoromethyl)-1,2,4-oxadiazol-3-yl]-3,5-dihydro-2H-1,4-benzoxazepine]	< 200 nM
CC1(C(=O)N2Cc3ccc(-c4noc(C(F)(F)F)n4)cc3OCC23CC3)COC1 [Compound 47, (3-methyloxetan-3-yl)(8-(5-(trifluoromethyl)-1,2,4-oxadiazol-3-yl)-2H-spiro[benzo[f][1,4]oxazepine-3,1′-cyclopropan]-4(5H)-yl)methanone]	200 to 500 nM
COC[C@H]1COc2cc(-c3noc(C(F)(F)F)n3)ccc2CN1C(=O)C(C)(C)C [Compound 27, 1-[(3S)-3-(methoxymethyl)-8-[5-(trifluoromethyl)-1,2,4-oxadiazol-3-yl]-3,5-dihydro-2H-1,4-benzoxazepin-4-yl]-2,2-dimethylpropan-1-one]	< 200 nM
CC1(C(=O)N2CCOc3cc(-c4noc(C(F)(F)F)n4)ccc3C2)COC1 [Compound 52, 4-[(3-methyloxetan-3-yl)carbonyl]-8-[5-(trifluoromethyl)-1,2,4-oxadiazol-3-yl]-3,5-dihydro-2H-1,4-benzoxazepine]	200 to 500 nM
CC1(C(=O)N2Cc3ccc(-c4noc(C(F)(F)F)n4)cc3OC[C@@H]2c2ccccc2)CCOCC1 [Compound 4, (S)-(4-methyltetrahydro-2H-pyran-4-yl)(3-phenyl-8-(5-(trifluoromethyl)-1,2,4-oxadiazol-3-yl)-2,3-dihydrobenzo[f][1,4]oxazepin-4(5H)-yl)methanone]	< 200 nM
C[C@H]1COc2cc(-c3noc(C(F)(F)F)n3)ccc2CN1CC(F)(F)F [Compound 36, (S)-3-methyl-4-(2,2,2-trifluoroethyl)-8-(5-(trifluoromethyl)-1,2,4-oxadiazol-3-yl)-2,3,4,5-tetrahydrobenzo[f][1,4]oxazepine]	500 to 5000 nM
CC(C)(C)C(=O)N1Cc2c(F)cc(-c3noc(C(F)(F)F)n3)cc2OC[C@@H]1c1ccccc1 [Compound 15, (S)-1-(6-fluoro-3-phenyl-8-(5-(trifluoromethyl)-1,2,4-oxadiazol-3-yl)-2,3-dihydrobenzo[f][1,4]oxazepin-4(5H)-yl)-2,2-dimethylpropan-1-one]	200 to 500 nM
CC1(C(=O)N2CCOc3cc(-c4noc(C(F)(F)F)n4)cc(F)c3C2)COC1 [Compound 37, 6-fluoro-4-[(3-methyloxetan-3-yl)carbonyl]-8-[5-(trifluoromethyl)-1,2,4-oxadiazol-3-yl]-3,5-dihydro-2H-1,4-benzoxazepine]	< 200 nM
CC(C)N1CCC(C)(C(=O)N2Cc3c(F)cc(-c4noc(C(F)(F)F)n4)cc3OC[C@@H]2C)CC1 [Compound 56, (S)-(6-fluoro-3-methyl-8-(5-(trifluoromethyl)-1,2,4-oxadiazol-3-yl)-2,3-dihydrobenzo[f][1,4]oxazepin-4(5H)-yl)(1-isopropyl-4-methylpiperidin-4-yl)methanone]	< 200 nM
CC(C)C(=O)N1CCOc2cc(-c3noc(C(F)(F)F)n3)ccc2C1 [Compound 53, 2-methyl-1-{8-[5-(trifluoromethyl)-1,2,4-oxadiazol-3-yl]-3,5-dihydro-2H-1,4-benzoxazepin-4-yl}propan-1-one]	200 to 500 nM
COCC1(C(=O)N2Cc3c(F)cc(-c4noc(C(F)(F)F)n4)cc3OC[C@@H]2C)COC1 [Compound 30, (3S)-6-fluoro-4-{[3-(methoxymethyl)oxetan-3-yl]carbonyl}-3-methyl-8-[5-(trifluoromethyl)-1,2,4-oxadiazol-3-yl]-3,5-dihydro-2H-1,4-benzoxazepine]	< 200 nM
CC(C)(C)OC(=O)N1Cc2ccc(-c3noc(C(F)(F)F)n3)cc2OC[C@@H]1c1ccccc1 [Compound 8, tert-butyl (S)-3-phenyl-8-(5-(trifluoromethyl)-1,2,4-oxadiazol-3-yl)-2,3-dihydrobenzo[f][1,4]oxazepine-4(5H)-carboxylate]	500 to 5000 nM
CC1(C(=O)N2Cc3ccc(-c4noc(C(F)(F)F)n4)cc3OC[C@@H]2c2ccccc2)CCCOC1 (single isomer, unassigned) [Compound 14]	500 to 5000 nM
CC1(C(=O)N2CCOc3cc(-c4noc(C(F)(F)F)n4)cc(F)c3C2)CCOCC1 [Compound 28, 6-fluoro-4-[(4-methyloxan-4-yl)carbonyl]-8-[5-(trifluoromethyl)-1,2,4-oxadiazol-3-yl]-3,5-dihydro-2H-1,4-benzoxazepine]	< 200 nM
C[C@H]1COc2cc(-c3noc(C(F)(F)F)n3)cc(F)c2CN1C(=O)c1ccccc1 [Compound 44, (3S)-4-benzoyl-6-fluoro-3-methyl-8-[5-(trifluoromethyl)-1,2,4-oxadiazol-3-yl]-3,5-dihydro-2H-1,4-benzoxazepine]	200 to 500 nM
C[C@H]1COc2cc(-c3noc(C(F)(F)F)n3)cc(F)c2CN1C(=O)C1CCOCC1 [Compound 39, (3S)-6-fluoro-3-methyl-4-[(oxan-4-yl)carbonyl]-8-[5-(trifluoromethyl)-1,2,4-oxadiazol-3-yl]-3,5-dihydro-2H-1,4-benzoxazepine]	< 200 nM
